From the supplement of paper PMC11208160 come the findings set out here.
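Also: IS621 recombinase and bridge RNA in Escherichia coli cells.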

A short description of the data set: recombinant barcode read abundance after kanamycin selection (control-corrected) (log10(CPM+1)); higher = more efficient recombination; sequences stand for … in AGTGCAGAGAAAATCGGCCAGTTTTCTCTGCCTGCAGTCCGCATGCCGT…AGATTTATGCAGCGGACTGCCTTTCTCCCAAAGTGATAAACCGGACAGTATCATGGACCGGTTTTCCCGGTAATCCGTATTTGCAAGGTTGGTTTCACT; site = the 11-nt target. In short, it runs like this:
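The screen was pooled in E. coli and paired targets with IS621 bridge RNA target-binding loops. Recombination efficiency is taken from barcode counts per million at recombinant junctions, averaged and adjusted against the control. Values, in the form log10(CPM+1), come from duplicate plating on chloramphenicol/ampicillin LB agar or on chloramphenicol/ampicillin/kanamycin with 0.1 mM IPTG.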
On to “CGAACTACTTGGGTTCTAACCTGTTGCAT (site CGAACTACTAT)”, for which the “recombinant barcode read abundance (log10)” value stood at 0.239.

On to “CGAACTACTTGGGTTCTAACCTGTTGCTT (site CGAACTACTAA)”, for which the “recombinant barcode read abundance (log10)” value is 0.142.

For the sequence “CGAACTACTTGGGTTCTAACCTGTTGCTT (site CGAACTACTAC)”, the “recombinant barcode read abundance (log10)” value worked out at 0.205.

On to “CGAACTACTTGGGTTCTAACCTGTTGCTT (site CGAACTACTAG)”, for which the “recombinant barcode read abundance (log10)” value came to 0.202.

Turning to “CGAACTACTTGGGTTCTAACCTGTTGCTT (site CGAACTACTAT)”, the “recombinant barcode read abundance (log10)” value is 0.0384.

With “CGAAGGACTTGGGTTCTAACCTGTTGCTA (site CGAAGGACTTA)”, the “recombinant barcode read abundance (log10)” value was 0.973.

With “CGAAGGACTTGGGTTCTAACCTGTTGCTA (site CTAAGGACTTA)”, the “recombinant barcode read abundance (log10)” value worked out at 0.231.

For the sequence “CGAATCACTTGGGTTCTAACCTGTTGCCT (site CGAATCACTAG)”, the “recombinant barcode read abundance (log10)” value came out at 0.686.

As for “CGAATCACTTGGGTTCTAACCTGTTGCCT (site CGAATCCCTAG)”, the “recombinant barcode read abundance (log10)” value was 0.062.

Regarding “CGAATCACTTGGGTTCTAACCTGTTGCCT (site CGAATCGCTAG)”, the “recombinant barcode read abundance (log10)” value was found to be 0.182.

In the case of “CGAATCACTTGGGTTCTAACCTGTTGCCT (site CGAATCTCTAG)”, the “recombinant barcode read abundance (log10)” value was 0.0867.

As for “CGAATCCCTTGGGTTCTAACCTGTTGCCG (site CGAACCTCTCG)”, the “recombinant barcode read abundance (log10)” value turned out to be 0.185.

As for “CGAATCCCTTGGGTTCTAACCTGTTGCCG (site CGAATCCCTCG)”, the “recombinant barcode read abundance (log10)” value was 0.906.

Consider “CGACAATCTTGGGTTCTAACCTGTTGCTT (site CGACAATCTAA)”, for which the “recombinant barcode read abundance (log10)” value was found to be 0.0157.

In the case of “CGACAATCTTGGGTTCTAACCTGTTGCTT (site TCTAGGACTTT)”, the “recombinant barcode read abundance (log10)” value was determined as 0.27.

“CGACACACTTGGGTTCTAACCTGTTGCCT (site CGACACACTAG)”: the “recombinant barcode read abundance (log10)” value was found to be 0.135.

For the sequence “CGACACACTTGGGTTCTAACCTGTTGCCT (site CGCCACACTAG)”, the “recombinant barcode read abundance (log10)” value was 0.0974.

In the case of “CGACACACTTGGGTTCTAACCTGTTGCCT (site CGGCACACTAG)”, the “recombinant barcode read abundance (log10)” value came to 0.0559.

On to “CGACACACTTGGGTTCTAACCTGTTGCCT (site CGTCACACTAG)”, for which the “recombinant barcode read abundance (log10)” value is 0.0536.

Consider “CGACAGGCTTGGGTTCTAACCTGTTGCCT (site AGACTGGCTAG)”, for which the “recombinant barcode read abundance (log10)” value was determined as 0.073.

“CGACAGGCTTGGGTTCTAACCTGTTGCCT (site CGACAGGCTAG)”: the “recombinant barcode read abundance (log10)” value came out at 0.439.

As for “CGACGCACTTGGGTTCTAACCTGTTGCGG (site CGACGCACTCC)”, the “recombinant barcode read abundance (log10)” value came out at 0.584.

On to “CGACGCACTTGGGTTCTAACCTGTTGCGG (site TAGTTGTCTAA)”, for which the “recombinant barcode read abundance (log10)” value is 0.0412.

On to “CGAGACGCTTGGGTTCTAACCTGTTGCCT (site CCATACGCTAG)”, for which the “recombinant barcode read abundance (log10)” value is 0.109.

“CGAGACGCTTGGGTTCTAACCTGTTGCCT (site CGAGACGCTAG)”: the “recombinant barcode read abundance (log10)” value stood at 1.87.

Consider “CGAGAGACTTGGGTTCTAACCTGTTGCTT (site CAAGAGTCTAA)”, for which the “recombinant barcode read abundance (log10)” value was determined as 0.0807.

Regarding “CGAGAGACTTGGGTTCTAACCTGTTGCTT (site CGAGAGACTAA)”, the “recombinant barcode read abundance (log10)” value was found to be 0.994.

Take “CGAGAGTCTTGGGTTCTAACCTGTTGCGG (site AGAGAGGCTCC)”: the “recombinant barcode read abundance (log10)” value amounted to 0.119.

For the sequence “CGAGAGTCTTGGGTTCTAACCTGTTGCGG (site CGAGAGTCTCC)”, the “recombinant barcode read abundance (log10)” value was determined as 1.31.

For the sequence “CGAGATTCTTGGGTTCTAACCTGTTGCCT (site CAAGATTCTAG)”, the “recombinant barcode read abundance (log10)” value came out at 0.331.

Take “CGAGATTCTTGGGTTCTAACCTGTTGCCT (site CCAGATTCTAG)”: the “recombinant barcode read abundance (log10)” value was 0.271.

As to “CGAGATTCTTGGGTTCTAACCTGTTGCCT (site CGAGATTCTAG)”, the “recombinant barcode read abundance (log10)” value was 0.755.
